Assay results from the supplement of paper PMC10627819.

Columns and labels:
[1] = test system: B. subtilis 168; test: fitness (endpoint OD595 vs no drug) (fraction); higher = more growth
Method in brief: (§1)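 With the first reading as background, OD595 was measured every 30 min for 14 h in 384-well plates kept at 37 °C and inoculated at OD595 0.01. TSB, LB Lennox or CY was the medium. Fitness is the optical density at the transition into stationary phase divided by the robust mean of no-drug control wells, with a cap of 1.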

[2] = test system: S. aureus Newman; test: as above
Method in brief: as §1

[3] = test system: S. pneumoniae D39V; test: as above
Method in brief: as §1

[4] = test system: B. subtilis 168; test: Bliss interaction score (quartile over a dose matrix) (fitness difference); higher = more antagonism (negative = synergy)
Method in brief: (§2)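 Growth was read as OD595 when cultures entered stationary phase, and each value was divided by the plate's robust no-drug mean and capped at 1. This normalised ratio is the fitness value, and fitness for each single drug came from the combination data. The Bliss score subtracts the expected fitness, taken as the product, from the observed fitness and is given as quartiles across technical, biological and donor/recipient replicates.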

[5] = test system: S. aureus DSM 20231; test: as above
Method in brief: as §2

[6] = test system: S. aureus Newman; test: as above
Method in brief: as §2

[7] = test system: S. pneumoniae D39V; test: as above
Method in brief: as §2
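Wherever Bliss interaction score (quartile over a dose matrix) is given: first quartile when negative (synergy) and third quartile when positive (antagonism).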
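Wherever fitness (endpoint OD595 vs no drug) is given: OD595 on entry to stationary phase over no-drug wells; at most 1.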

O=C(O)c1cn(C2CC2)c2cc(N3CCNCC3)c(F)cc2c1=O [Ciprofloxacin] + C[C@@H]1O[C@@H]1P(=O)(O)O [Fosfomycin]
Settings	fitness
[1], first compound 0.0098 µg/mL, partner 1.562 µg/mL	0.669
[1], first compound 0.0098 µg/mL, partner 3.124 µg/mL	0.577
[1], first compound 0.0195 µg/mL, partner 1.562 µg/mL	0.409
[1], first compound 0.0195 µg/mL, partner 6.248 µg/mL	0.169
[1], first compound 0.039 µg/mL, partner 1.562 µg/mL	0.0478
[1], first compound 0.039 µg/mL, partner 3.124 µg/mL	0.035
[1], first compound 0.039 µg/mL, partner 6.248 µg/mL	0.0167
[2], first compound 0.0375 µg/mL, partner 0.781 µg/mL	0.553
[2], first compound 0.0375 µg/mL, partner 1.562 µg/mL	0.455
[2], first compound 0.0375 µg/mL, partner 3.124 µg/mL	0.0938
[2], first compound 0.075 µg/mL, partner 0.781 µg/mL	0.527
[2], first compound 0.075 µg/mL, partner 3.124 µg/mL	0.117
[2], first compound 0.15 µg/mL, partner 0.781 µg/mL	0.168
[2], first compound 0.15 µg/mL, partner 1.562 µg/mL	0.114
[2], first compound 0.15 µg/mL, partner 3.124 µg/mL	0.0354
[3], first compound 0.125 µg/mL, partner 1.25 µg/mL	0.94
[3], first compound 0.125 µg/mL, partner 2.5 µg/mL	0.892
[3], first compound 0.125 µg/mL, partner 5 µg/mL	0.688
[3], first compound 0.25 µg/mL, partner 1.25 µg/mL	0.865
[3], first compound 0.25 µg/mL, partner 2.5 µg/mL	0.782
[3], first compound 0.25 µg/mL, partner 5 µg/mL	0.652
[3], first compound 0.5 µg/mL, partner 5 µg/mL	0.42

Settings	Bliss interaction score
[4]	-0.177
[5]	0.042
[6]	0.0638
[7]	-0.0628
